Test results reported in patent US20240050385A1, “METHODS OF TREATING LEPTOMENINGEAL METASTASIS” (MEMORIAL SLOAN-KETTERING CANCER CENTER, priority 2020, published 2024).

Columns and labels:
[1] = tested on: LCN2; assay: LCN2 ELISA after recombinant cytokine stimulation; format: cell-based; details: recombinant cytokine added to artificial CSF; PC9, MDA231 or LLC LeptoM cells; ELISA at 48 h
Protocol: FIG. 11A-11E. Proinflammatory cytokines in human CSF. (A) LCN2 was quantified by ELISA in the CSF from patients harboring LM was treated with neutralizing antibody against IL-6 or IL-8 and added to MDA231-LeptoM cells for 12 hours. N=3 in each of two independent experiments. NS=not significant, * indicates p<0.05, ** indicates p<0.01, *** indicates p<0.001 (unpaired t test). Data represent mean±SEM. (B) Evaluation of LCN2 expression by ELISA with the treatment of pro-inflammatory cytokines IL-6, IL-8, IL-1β and TNF in PC9-Par and PC9-LeptoM cells. LCN2 expression was determined by ELISA of conditioned media collected 48 hours after recombinant cytokine stimulation. N=3 in each of two independent experiments. *indicates p<0.05 (unpaired t test). Data represent mean±SEM. (C) LCN2 expression by ELISA 48 h after treatment of MDA-Par and MDA-LeptoM cells with IL-6, IL-8, IL-1β and TNF. LCN2 expression by ELISA in conditioned media for 48 hours after recombinant cytokines stimulation. N=3 in each of two independent experiments. *indicates p<0.05 (unpaired t test). Data represent mean±SEM. (D) LCN2 expression by ELISA 48 h after treatment of LLC-Par and LLC-LeptoM cells with IL-6, IL-1β and TNF. N=3 in each of two independent experiments. * indicates p<0.05 (unpaired t test). Data represent mean±SEM. (E) Visualization of macrophage cells in first two diffusion components. First diffusion component is best matched by Hypoxia as indicated with GSEA es=0.6, fdr=0 and M1 phenotype es=−0.5, fdr=0.11, while second diffusion component is best matched by M2 phenotype es=0.7, fdr=0. MAGIC imputed gene set expression was standardized to zero mean and unit of standard deviation.
Secreted protein detection. Human LCN2 (Abcam, ab215541), Hepcidin (R&D, DHP250), Transferrin (Abcam, ab187391), Ferritin (LSBio, LS-F428-1), IL-6 (R&D, D6050), IL-8 (R&D, D8000C), IL-1β (R&D, DLB50), TNF expression (Abcam, ab181421) in CSF patient samples or cell culture supernatants were measured using ELISA kits according to manufacturer's instructions. […]

[2] = tested on: PC9-LeptoM cells; assay: Cell associated iron and viability of PC9-LeptoM cells after knockdown of SLC22A17 or LCN2; format: cell-based, human; details: 100 μg/mL diferric Tf added in vitro
Excerpt: (§1) FIG. 14A-14K. Leptomeningeal metastasis requires iron transporters. (A) Total iron measured by mass spectroscopy in CSF cancer patients with and without LM. Presence of LM is indicated +/−. N=11 cancer patients without LM and n=12 cancer patients with LM. * indicates p<0.05 (unpaired t test). Data represent mean±SEM. (B) LCN2 iron binding assay in patient CSF. Non-LCN2-bound iron [NLBI] and LCN2-bound iron [LBI] was detected in the CSF from cancer patients with or without LM. N=10. **** indicates p<0.0001 (unpaired t test). Data represent mean±SEM. (C) Expression of genes associated with iron transport in parental cells and LeptoM cells by bulk RNA sequencing. N=2 in PC9 cells and n=3 in LeptoM cells. Presented as log 2 fold change in each group with cutoff <20 normalized counts. (D) Tumor growth in mice injected with PC9-LeptoM cells expressing shCtl or shLCN2. Treatment with either vehicle or 5 mg/Ml holo-transferrin (diferric [Tf]) was commenced on day 1 and continued every third day for a total of 7 doses. Left: Histogram represents in vivo BLI imaging post-inoculation at day 21. […] Iron measured by colorimetric assay. […] Intracellular iron was determined by colorimetric assay. […]
Cell Viability Assay. […] The CellTiter-Glo Luminescent Cell Viability Assay (Promega G9241) was used to quantify viable cells in culture according to the manufacturer's protocols. […]

[3] = tested on: LeptoM cells expressing shLCN2; assay: Tumor growth in mice injected with LeptoM cells expressing shLCN2, treated with holo-transferrin; format: in vivo, mouse; details: 5 mg/mL holo-transferrin intracisternal every third day, 7 doses
Excerpt: as §1, with “21. N=6-8 per group in each of two independent experiments. Right: Representative BLI images. Sh1+Veh vs sh1+Tf, p=0.2087. sh2+Veh vs sh2+Tf, p=0.0604. Data represent mean±SEM.” for “21.”

Substance | expression of LCN2 [1] | cell growth after SLC22A17 or LCN2 knockdown [2] | intracellular iron accumulation after SLC22A17 or LCN2 knockdown [2] | rescue of LCN2 knockdown by shRNA in vivo (tumor growth, survival) [3]
IL-1β: recombinant IL-1β (R&D) added to culture media | induced expression of LCN2 | – | – | –
IL-6: recombinant IL-6 (R&D) added to culture media | induced expression of LCN2 | – | – | –
IL-8: recombinant IL-8 (R&D) added to culture media | induced expression of LCN2 | – | – | –
transferrin: iron-loaded (diferric) holo-transferrin, Invitria 777TRF029 | – | rescued | rescued | partially rescued
